Reference: US20230081426A1, “COMPOUNDS AND METHODS FOR KRAS MODULATION AND INDICATIONS THEREFOR” (Plexxikon Inc., priority 2020, published 2023)

What was measured:
[1] = target: T1, G12D-mutant human KRAS (amino acid residues 1-188) (Homo sapiens, UniProt P01116, G12D); test: KRAS Binding Disruption Assay (AlphaScreen; biotinylated KRpep-2d analogue or RAF1-RBD), G12D; settings: KRAS G12D; geometric mean; read-out: KRAS GMean IC50 (uM) MUTATION: G12D
T1 construct: G12D or G12C-mutant human KRAS (amino acid residues 1-188) with FLAG tag; made in house; host or cells: E. coli
How it was run: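 Displacement format with mutant KRAS, biotinylated KRpep-2d analogue or RAF1-RBD (5-20 nM each) at pH 7.5 with 5 mM MgCl2.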

[2] = target: T2, G12V-mutant human KRAS (amino acid residues 1-188) (Homo sapiens, UniProt P01116, G12V); test: KRAS Binding Competition Assay (AlphaScreen; biotinylated KRpep-2d analogue), G12V; settings: geometric mean, read-out: KRAS GMean IC50 (uM) MUTATION: G12V
T2 construct: G12V-mutant human KRAS (amino acid residues 1-188) with FLAG tag was purified from E. coli; made in house; host or cells: E. coli

IC50 [1] | IC50 [2] | Structure (SMILES)
0.0001 to 10 µM | 100 to 1000 µM | Cc1cccc2c1N(c1ncc3c(N4C[C@H]5CC[C@@H](C4)N5)nc(OCC45CCCN4CCC5)nc3c1F)CC(O)C2 (stereo partly drawn) [P-0453, 1-(4-((1R,5S)-3,8-diazabicyclo[3.2.1]octan-3-yl)-8-fluoro-2-((tetrahydro-1H-pyrrolizin-7a(5H)-yl)methoxy)pyrido[4,3-d]pyrimidin-7-yl)-8-methyl-1,2,3,4-tetrahydroquinolin-3-ol]
10 to 100 µM | 10 to 100 µM | Cc1c(N)cccc1-c1ccc2c(N3[C@@H]4CC[C@H]3CNC4)nc(OC[C@@H]3CCCN3C)nc2c1 [P-0286, 3-(4-((1R,5S)-3,8-diazabicyclo[3.2.1]octan-8-yl)-2-(((S)-1-methylpyrrolidin-2-yl)methoxy)quinazolin-7-yl)-2-methylaniline]
0.0001 to 10 µM | 0.0001 to 10 µM | O=C(CN1[C@@H]2CC[C@H]1CN(c1nc(OCC34CCCN3CCC4)nc3cc(-c4cc(O)cc5ccccc45)ccc13)C2)C1CCNCC1 [P-0138, 2-((1R,5S)-3-(7-(3-hydroxynaphthalen-1-yl)-2-((tetrahydro-1H-pyrrolizin-7a(5H)-yl)methoxy)quinazolin-4-yl)-3,8-diazabicyclo[3.2.1]octan-8-yl)-1-(piperidin-4-yl)ethan-1-one]
0.0001 to 10 µM | 0.0001 to 10 µM | Oc1cc(-c2ccc3c(N4[C@@H]5CC[C@H]4CNC5)nc(CCc4cccnc4)nc3c2)c2ccccc2c1 [P-0241, 4-(4-((1R,5S)-3,8-diazabicyclo[3.2.1]octan-8-yl)-2-(2-(pyridin-3-yl)ethyl)quinazolin-7-yl)naphthalen-2-ol]
10 to 100 µM | 10 to 100 µM | Cc1cccc2cccc(-c3ccc4c(N5CC6CCC(C5)N6C(=O)CC#N)nc(OC[C@@H]5CCCN5C)nc4c3F)c12 (racemic) [P-0019, 3-((1R,5S)-3-(8-fluoro-7-(8-methylnaphthalen-1-yl)-2-(((RS)-1-methylpyrrolidin-2-yl)methoxy)quinazolin-4-yl)-3,8-diazabicyclo[3.2.1]octan-8-yl)-3-oxopropanenitrile]
0.0001 to 10 µM | 0.0001 to 10 µM | NS(=O)(=O)C1(C(=O)N2[C@@H]3CC[C@H]2CN(c2nc(OCC45CCCN4CCC5)nc4c(F)c(-c5cc(O)cc6ccccc56)ccc24)C3)CC1 [P-0452, 1-((1R,5S)-3-(8-fluoro-7-(3-hydroxynaphthalen-1-yl)-2-((tetrahydro-1H-pyrrolizin-7a(5H)-yl)methoxy)quinazolin-4-yl)-3,8-diazabicyclo[3.2.1]octane-8-carbonyl)cyclopropane-1-sulfonamide]
10 to 100 µM | 0.0001 to 10 µM | Cc1cccc2cccc(-c3ccc4c(N5C[C@H]6CC[C@@H](C5)N6C(=O)CC#N)nc(OCC56CCCN5CCC6)nc4c3F)c12 [P-0442, 3-((1R,5S)-3-(8-fluoro-7-(8-methylnaphthalen-1-yl)-2-((tetrahydro-1H-pyrrolizin-7a(5H)-yl)methoxy)quinazolin-4-yl)-3,8-diazabicyclo[3.2.1]octan-8-yl)-3-oxopropanenitrile]
0.0001 to 10 µM | 10 to 100 µM | CN1CCC[C@H]1COc1nc(N2[C@@H]3CC[C@H]2CN(c2nccc(N)n2)C3)c2ccc(-c3cc(O)cc4ccccc34)cc2n1 [P-0270, 4-(4-((1R,5S)-3-(4-aminopyrimidin-2-yl)-3,8-diazabicyclo[3.2.1]octan-8-yl)-2-(((S)-1-methylpyrrolidin-2-yl)methoxy)quinazolin-7-yl)naphthalen-2-ol]
0.0001 to 10 µM | 10 to 100 µM | CN1CCC[C@H]1COc1nc(N2C[C@H]3CC[C@@H](C2)N3)c2ccc(N3CC(O)Cc4ccccc43)c(F)c2n1 (stereo partly drawn) [P-0307, 1-(4-((1R,5S)-3,8-diazabicyclo[3.2.1]octan-3-yl)-8-fluoro-2-(((S)-1-methylpyrrolidin-2-yl)methoxy)quinazolin-7-yl)-1,2,3,4-tetrahydroquinolin-3-ol]
0.0001 to 10 µM | 10 to 100 µM | CN1CCC[C@H]1COc1nc(N2[C@@H]3CC[C@H]2CNC3)c2ccc(-c3c(O)ccc4ccccc34)cc2n1 [P-0259, 1-(4-((1R,5S)-3,8-diazabicyclo[3.2.1]octan-8-yl)-2-(((S)-1-methylpyrrolidin-2-yl)methoxy)quinazolin-7-yl)naphthalen-2-ol]
10 to 100 µM | 10 to 100 µM | CN1CCC[C@H]1COc1nc(N2[C@@H]3CC[C@H]2CNC3)c2ccc(-c3ccc4ccccc4c3)cc2n1 [P-0258, 4-((1R,5S)-3,8-diazabicyclo[3.2.1]octan-8-yl)-2-(((S)-1-methylpyrrolidin-2-yl)methoxy)-7-(naphthalen-2-yl)quinazoline]
0.0001 to 10 µM | 0.0001 to 10 µM | CN1C[C@H](F)C[C@H]1COc1nc(N2C[C@H]3CC[C@@H](C2)N3)c2ccc(-c3cc(O)cc4ccccc34)cc2n1 [P-0072, 4-(4-((1R,5S)-3,8-diazabicyclo[3.2.1]octan-3-yl)-2-(((2S,4R)-4-fluoro-1-methylpyrrolidin-2-yl)methoxy)quinazolin-7-yl)naphthalen-2-ol]
10 to 100 µM | 100 to 1000 µM | COc1ccc2[nH]cc(-c3ccc4c(N5C[C@H]6CC[C@@H](C5)N6)nc(OC[C@@H]5CCCN5C)nc4c3F)c2c1 [P-0314, 4-((1R,5S)-3,8-diazabicyclo[3.2.1]octan-3-yl)-8-fluoro-7-(5-methoxy-1H-indol-3-yl)-2-(((S)-1-methylpyrrolidin-2-yl)methoxy)quinazoline]
0.0001 to 10 µM | 0.0001 to 10 µM | CN1CCc2cc(Oc3nc(N4[C@@H]5CC[C@H]4CNC5)c4ccc(-c5cc(O)cc6ccccc56)cc4n3)ccc2C1 [P-0238, 4-(4-((1R,5S)-3,8-diazabicyclo[3.2.1]octan-8-yl)-2-((2-methyl-1,2,3,4-tetrahydroisoquinolin-6-yl)oxy)quinazolin-7-yl)naphthalen-2-ol]
0.0001 to 10 µM | 10 to 100 µM | CN1CCC[C@H]1COc1nc(N2C[C@@H]3C[C@H]2CN3)c2cc(Cl)c(-c3cc(O)cc4ccccc34)c(F)c2n1 [P-0042, 4-(4-((1S,4S)-2,5-diazabicyclo[2.2.1]heptan-2-yl)-6-chloro-8-fluoro-2-(((S)-1-methylpyrrolidin-2-yl)methoxy)quinazolin-7-yl)naphthalen-2-ol]
0.0001 to 10 µM | 10 to 100 µM | Oc1cc(-c2ccc3c(N4C[C@H]5CC[C@@H](C4)N5)nc(OC[C@@H]4CCCN4CCF)nc3c2)c2ccccc2c1 [P-0077, 4-(4-((1R,5S)-3,8-diazabicyclo[3.2.1]octan-3-yl)-2-(((S)-1-(2-fluoroethyl)pyrrolidin-2-yl)methoxy)quinazolin-7-yl)naphthalen-2-ol]
10 to 100 µM | 10 to 100 µM | CN1CCC[C@H]1COc1nc(N2[C@@H]3CC[C@H]2CN(C(=O)CCC2CCNCC2)C3)c2ccc(-c3cc(O)cc4ccccc34)cc2n1 [P-0193, 1-((1R,5S)-8-(7-(3-hydroxynaphthalen-1-yl)-2-(((S)-1-methylpyrrolidin-2-yl)methoxy)quinazolin-4-yl)-3,8-diazabicyclo[3.2.1]octan-3-yl)-3-(piperidin-4-yl)propan-1-one]
10 to 100 µM | 10 to 100 µM | CN1CCC[C@H]1COc1nc(N2[C@@H]3CC[C@H]2CN(C(=O)CCCN2CCOCC2)C3)c2ccc(-c3cc(O)cc4ccccc34)cc2n1 [P-0267, 1-((1R,5S)-8-(7-(3-hydroxynaphthalen-1-yl)-2-(((S)-1-methylpyrrolidin-2-yl)methoxy)quinazolin-4-yl)-3,8-diazabicyclo[3.2.1]octan-3-yl)-4-morpholinobutan-1-one]
0.0001 to 10 µM | 10 to 100 µM | CN(C)CCc1nc(N2C[C@H]3CC[C@@H](C2)N3)c2ccc(-c3cc(O)cc4ccccc34)c(F)c2n1 [P-0413]
0.0001 to 10 µM | 10 to 100 µM | CN1CCC[C@H]1COc1nc(N2C[C@H]3CC[C@@H](C2)N3)c2ccc(-c3c(O)cccc3Cl)cc2n1 [P-0342, 2-(4-((1R,5S)-3,8-diazabicyclo[3.2.1]octan-3-yl)-2-(((S)-1-methylpyrrolidin-2-yl)methoxy)quinazolin-7-yl)-3-chlorophenol]
0.0001 to 10 µM | 10 to 100 µM | CN1CCC[C@H]1COc1nc(N2C[C@H]3CC[C@@H](C2)N3)c2ccc(-c3cc(O)c(F)c4ccccc34)cc2n1 [P-0385, 4-(4-((1R,5S)-3,8-diazabicyclo[3.2.1]octan-3-yl)-2-(((S)-1-methylpyrrolidin-2-yl)methoxy)quinazolin-7-yl)-1-fluoronaphthalen-2-ol]
10 to 100 µM | 10 to 100 µM | CN1CCC[C@H]1COc1nc(N2[C@@H]3CC[C@H]2CN(C(=N)N)C3)c2ccc(-c3cc(O)cc4ccccc34)cc2n1 [P-0231, (1R,5S)-8-(7-(3-hydroxynaphthalen-1-yl)-2-(((S)-1-methylpyrrolidin-2-yl)methoxy)quinazolin-4-yl)-3,8-diazabicyclo[3.2.1]octane-3-carboximidamide]
10 to 100 µM | 10 to 100 µM | CN1CCC[C@H]1COc1nc(N2[C@@H]3CC[C@H]2CNC3)c2ccc(-c3c(Cl)cccc3Cl)cc2n1 [P-0264, 4-((1R,5S)-3,8-diazabicyclo[3.2.1]octan-8-yl)-7-(2,6-dichlorophenyl)-2-(((S)-1-methylpyrrolidin-2-yl)methoxy)quinazoline]
10 to 100 µM | 10 to 100 µM | CN1CCC[C@H]1COc1nc(N2[C@@H]3CC[C@H]2CN(C(=O)c2cc[nH]n2)C3)c2ccc(-c3cc(O)cc4ccccc34)cc2n1 [P-0273, ((1R,5S)-8-(7-(3-hydroxynaphthalen-1-yl)-2-(((S)-1-methylpyrrolidin-2-yl)methoxy)quinazolin-4-yl)-3,8-diazabicyclo[3.2.1]octan-3-yl)(1H-pyrazol-3-yl)methanone]
